Like-named read-outs stand apart in the source and are kept apart here.
Tests used:
[1] = biological target: Human CDK12 wt/CycK (Homo sapiens (Human), UniProt Q9NYV4); assay: Radiometric protein kinase assay (33PanQinase Activity Assay), CDK12; format: biochemical; conditions: for CDK7/CDK12: ratio greater than 1 indicated selectivity for CDK12
Description: (§1) A radiometric protein kinase assay (^33PanQinase® Activity Assay) was used for measuring the kinase activity of the two protein kinases (CDK12/CDK7). All kinase assays were performed in 96-well FlashPlates™ from PerkinElmer (Boston, MA, USA) in a 50 μL reaction volume.
(§2) The reaction cocktail was pipetted in four steps in the following order: • 20 μL of assay buffer (standard buffer) • 5 μL of ATP solution (in H2O) • 5 μL of test compound (in 10% DMSO) • 10 μL of substrate/10 μL of enzyme solution (premixed)
(§3) The reaction mixture was incubated at 30° C. for 60 min and then stopped by the addition of 2% (v/v) H3PO4. Plates were aspirated and washed two times with 200 μL 0.9% (w/v) NaCl. Incorporation of ^33Pi was determined with a microplate scintillation count (Microbeta, Wallac).
(§4) The fitting method used was a least-squares fit.

[2] = system: A673 cells; assay: Cellular potency in A673 cells; format: cell-based; conditions: for IC50: Homo sapiens, A673, Table 3, A673 cells; for Ratio of Biochemical Potency: Cellular Potency: Table 3, ratio >0.9 is an indicator of Cyclin K degradation
[3] = biological target: Human CDK7/CycH/MAT1 (Homo sapiens (Human), UniProt P50613); assay: Radiometric protein kinase assay (33PanQinase Activity Assay), CDK7; format: biochemical; conditions: Table 1; ATP 3 μM
Sequence of Human CDK7/CycH/MAT1 (P50613 whole entry): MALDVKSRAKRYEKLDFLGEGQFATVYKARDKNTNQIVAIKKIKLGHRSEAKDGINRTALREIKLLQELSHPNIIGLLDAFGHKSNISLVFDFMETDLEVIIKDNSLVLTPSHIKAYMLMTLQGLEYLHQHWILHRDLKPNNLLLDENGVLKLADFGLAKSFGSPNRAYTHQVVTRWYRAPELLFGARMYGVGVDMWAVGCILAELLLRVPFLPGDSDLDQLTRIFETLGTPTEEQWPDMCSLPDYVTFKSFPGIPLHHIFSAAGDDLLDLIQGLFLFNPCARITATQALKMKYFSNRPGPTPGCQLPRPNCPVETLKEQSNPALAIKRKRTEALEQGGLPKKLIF
Sequence of Human CDK7/CycH/MAT1 (P51946 whole entry partner): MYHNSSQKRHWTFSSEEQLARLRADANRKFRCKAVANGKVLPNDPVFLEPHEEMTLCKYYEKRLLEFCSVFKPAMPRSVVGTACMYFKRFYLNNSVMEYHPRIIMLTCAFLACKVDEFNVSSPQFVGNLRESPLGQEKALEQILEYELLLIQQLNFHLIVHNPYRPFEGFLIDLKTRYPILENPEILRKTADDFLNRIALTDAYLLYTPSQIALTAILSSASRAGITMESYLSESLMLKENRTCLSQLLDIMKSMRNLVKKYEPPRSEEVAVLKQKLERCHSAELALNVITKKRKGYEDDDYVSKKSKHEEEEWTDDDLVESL
Sequence of Human CDK7/CycH/MAT1 (P51948 whole entry partner): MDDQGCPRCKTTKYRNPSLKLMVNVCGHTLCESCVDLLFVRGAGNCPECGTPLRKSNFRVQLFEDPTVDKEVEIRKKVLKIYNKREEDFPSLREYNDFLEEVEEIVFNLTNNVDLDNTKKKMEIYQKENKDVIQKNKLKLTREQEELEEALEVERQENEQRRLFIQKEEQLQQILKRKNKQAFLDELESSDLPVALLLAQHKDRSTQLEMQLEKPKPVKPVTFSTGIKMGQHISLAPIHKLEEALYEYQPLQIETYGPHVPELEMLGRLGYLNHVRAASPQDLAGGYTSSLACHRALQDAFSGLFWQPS
Description: as §1, §2, §3, §4

[4] = Table 1, ATP 0.3 μM, read-out: CDK12 IC50
[5] = Table 3, CDK12 kinase activity, read-out: Biochemical Potency IC50

Sequence of Human CDK12 wt/CycK (Q9NYV4 whole entry): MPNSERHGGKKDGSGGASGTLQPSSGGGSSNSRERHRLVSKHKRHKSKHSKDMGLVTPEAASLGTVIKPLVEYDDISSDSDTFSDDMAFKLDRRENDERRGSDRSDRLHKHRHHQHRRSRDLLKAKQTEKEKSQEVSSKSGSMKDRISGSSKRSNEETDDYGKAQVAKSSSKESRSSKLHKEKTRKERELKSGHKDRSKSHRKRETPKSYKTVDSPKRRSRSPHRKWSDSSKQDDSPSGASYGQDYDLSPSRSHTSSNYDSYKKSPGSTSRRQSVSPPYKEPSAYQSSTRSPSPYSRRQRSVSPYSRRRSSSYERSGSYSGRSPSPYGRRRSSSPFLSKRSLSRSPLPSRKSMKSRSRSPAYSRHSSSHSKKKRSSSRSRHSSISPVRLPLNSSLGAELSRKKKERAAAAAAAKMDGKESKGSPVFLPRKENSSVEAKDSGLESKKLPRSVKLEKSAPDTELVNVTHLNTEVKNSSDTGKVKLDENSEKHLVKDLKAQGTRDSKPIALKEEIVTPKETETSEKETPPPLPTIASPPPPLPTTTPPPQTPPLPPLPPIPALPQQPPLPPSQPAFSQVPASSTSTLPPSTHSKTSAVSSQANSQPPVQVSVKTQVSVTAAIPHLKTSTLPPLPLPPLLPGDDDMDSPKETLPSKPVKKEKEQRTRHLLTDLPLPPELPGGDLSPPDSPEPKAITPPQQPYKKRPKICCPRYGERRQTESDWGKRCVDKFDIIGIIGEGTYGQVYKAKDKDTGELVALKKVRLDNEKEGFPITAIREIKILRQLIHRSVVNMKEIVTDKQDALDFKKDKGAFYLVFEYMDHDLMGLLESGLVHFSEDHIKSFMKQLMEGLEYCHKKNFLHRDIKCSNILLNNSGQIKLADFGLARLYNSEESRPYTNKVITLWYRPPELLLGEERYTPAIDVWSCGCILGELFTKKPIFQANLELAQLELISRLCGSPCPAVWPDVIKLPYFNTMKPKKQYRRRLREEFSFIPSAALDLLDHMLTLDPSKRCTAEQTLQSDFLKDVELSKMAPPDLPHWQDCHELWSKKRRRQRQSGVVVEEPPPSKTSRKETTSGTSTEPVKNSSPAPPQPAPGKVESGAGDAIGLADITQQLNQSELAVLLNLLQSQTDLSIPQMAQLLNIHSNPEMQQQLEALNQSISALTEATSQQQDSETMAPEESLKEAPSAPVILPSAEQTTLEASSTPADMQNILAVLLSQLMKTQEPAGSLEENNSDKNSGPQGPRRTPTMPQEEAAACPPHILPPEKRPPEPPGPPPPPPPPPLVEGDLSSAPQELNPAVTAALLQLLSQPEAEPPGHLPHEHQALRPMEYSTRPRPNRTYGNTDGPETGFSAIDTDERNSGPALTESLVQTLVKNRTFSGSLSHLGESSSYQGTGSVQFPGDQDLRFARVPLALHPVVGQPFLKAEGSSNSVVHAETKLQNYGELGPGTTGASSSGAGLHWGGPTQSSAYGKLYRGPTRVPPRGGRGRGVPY
Sequence of Human CDK12 wt/CycK (O75909 whole entry partner): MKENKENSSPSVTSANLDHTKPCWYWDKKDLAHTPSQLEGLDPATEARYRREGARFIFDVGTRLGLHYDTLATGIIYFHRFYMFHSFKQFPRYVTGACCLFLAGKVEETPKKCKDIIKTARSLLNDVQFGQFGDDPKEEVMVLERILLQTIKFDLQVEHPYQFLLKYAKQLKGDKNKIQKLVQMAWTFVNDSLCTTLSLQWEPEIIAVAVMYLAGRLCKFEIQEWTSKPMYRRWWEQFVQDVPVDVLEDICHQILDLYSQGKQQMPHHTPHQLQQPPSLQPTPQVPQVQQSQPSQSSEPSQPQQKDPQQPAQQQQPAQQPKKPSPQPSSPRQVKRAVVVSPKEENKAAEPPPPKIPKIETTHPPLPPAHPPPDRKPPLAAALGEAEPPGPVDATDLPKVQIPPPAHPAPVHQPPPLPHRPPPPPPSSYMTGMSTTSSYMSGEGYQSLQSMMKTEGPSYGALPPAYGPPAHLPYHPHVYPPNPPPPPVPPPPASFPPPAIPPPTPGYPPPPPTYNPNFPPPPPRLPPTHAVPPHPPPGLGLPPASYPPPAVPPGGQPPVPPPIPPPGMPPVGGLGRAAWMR

Compound	IC50 [1, 4] [nM]	CDK7/CDK12 ([1]; Table 1)	IC50 [1, 5] [nM]	IC50 [2] [nM]	Ratio of Biochemical Potency: Cellular Potency [2]	IC50 [3] [nM]
Cc1cccc2ncc(CNc3cc(NC[C@H]4CCNC[C@@H]4O)nc4c(C(C)C)cnn34)n12 [H-APPAMP-001, (3R,4R)-4-(((3-isopropyl-7-(((5-methylimidazo[1,2-a]pyridin-3-yl)methyl)amino)pyrazolo[1,5-a]pyrimidin-5-yl)amino)methyl)piperidin-3-ol]	38	11.5	38	123	0.3	436
CC(C)c1cnn2c(NCc3cn4cccnc4n3)cc(NC[C@H]3CCNC[C@@H]3O)nc12 [H-APPAMP-002, (3R,4R)-4-(((7-((imidazo[1,2-a]pyrimidin-2-ylmethyl)amino)-3-isopropylpyrazolo[1,5-a]pyrimidin-5-yl)amino)methyl)piperidin-3-ol]	71.5	9.85	71	716	0.1	704
CC(C)c1cnn2c(NCc3cn4ccccc4n3)cc(NC[C@H]3CCNC[C@@H]3O)nc12 [H-APPAMP-003, (3R,4R)-4-(((7-((imidazo[1,2-a]pyridin-2-ylmethyl)amino)-3-isopropylpyrazolo[1,5-a]pyrimidin-5-yl)amino)methyl)piperidin-3-ol]	50.2	8.19	50	8	6.2	411
CC(C)c1cnn2c(NCc3nc4ccccc4[nH]3)cc(NC[C@H]3CCNC[C@@H]3O)nc12 [H-APPAMP-005, (3R,4R)-4-(((7-(((1H-benzo[d]imidazol-2-yl)methyl)amino)-3-isopropylpyrazolo[1,5-a]pyrimidin-5-yl)amino)methyl)piperidin-3-ol]	65	5.28	65	47	1.4	343
CC(C)c1cnn2c(NCc3ccc4c(c3)ncn4C)cc(NC[C@H]3CCNC[C@@H]3O)nc12 [H-APPAMP-006, (3R,4R)-4-(((3-isopropyl-7-(((1-methyl-1H-benzo[d]imidazol-5-yl)methyl)amino)pyrazolo[1,5-a]pyrimidin-5-yl)amino)methyl)piperidin-3-ol]	26.9	4.72	27	52	0.5	127
Cc1csc2nc(CNc3cc(NC[C@H]4CCNC[C@@H]4O)nc4c(C(C)C)cnn34)cn12 [H-APPAMP-007, (3R,4R)-4-[[[3-isopropyl-7-[(3-methylimidazo[2,1-b]thiazol-6-yl)methylamino]pyrazolo[1,5-a]pyrimidin-5-yl]amino]methyl]piperidin-3-ol]	20	7.90	20	27	0.7	158
Cc1ccn2cc(CNc3cc(NC[C@H]4CCNC[C@@H]4O)nc4c(C(C)C)cnn34)nc2c1 [H-APPAMP-009, (3R,4R)-4-(((3-isopropyl-7-(((7-methylimidazo[1,2-a]pyridin-2-yl)methyl)amino)pyrazolo[1,5-a]pyrimidin-5-yl)amino)methyl)piperidin-3-ol]	38	3.2	38	14.9	2.6	123
Cc1cccc2nc(CNc3cc(NC[C@H]4CCNC[C@@H]4O)nc4c(C(C)C)cnn34)cn12 [H-APPAMP-010, (3R,4R)-4-(((3-isopropyl-7-(((5-methylimidazo[1,2-a]pyridin-2-yl)methyl)amino)pyrazolo[1,5-a]pyrimidin-5-yl)amino)methyl)piperidin-3-ol]	40	6.0	40	4.3	9.3	238
CC(C)c1cnn2c(NCc3cn4cc(F)ccc4n3)cc(NC[C@H]3CCNC[C@@H]3O)nc12 [H-APPAMP-011, (3R,4R)-4-(((7-(((6-fluoroimidazo[1,2-a]pyridin-2-yl)methyl)amino)-3-isopropylpyrazolo[1,5-a]pyrimidin-5-yl)amino)methyl)piperidin-3-ol]	33	5.1	33	6.3	5.2	168
CC(C)c1cnn2c(NCc3cn4cc(Cl)ccc4n3)cc(NC[C@H]3CCNC[C@@H]3O)nc12 [H-APPAMP-012, (3R,4R)-4-(((7-(((6-chloroimidazo[1,2-a]pyridin-2-yl)methyl)amino)-3-isopropylpyrazolo[1,5-a]pyrimidin-5-yl)amino)methyl)piperidin-3-ol]	26	8.2	26	21.8	1.2	214
CC(C)c1cnn2c(NCc3cn4cccc(C5CC5)c4n3)cc(NC[C@H]3CCNC[C@@H]3O)nc12 [H-APPAMP-013, (3R,4R)-4-(((7-(((8-cyclopropylimidazo[1,2-a]pyridin-2-yl)methyl)amino)-3-isopropylpyrazolo[1,5-a]pyrimidin-5-yl)amino)methyl)piperidin-3-ol]	70	3.2	70	12.2	5.7	226
CC(C)c1cnn2c(NCc3ccc4ccccc4n3)cc(NC[C@H]3CCNC[C@@H]3O)nc12 [H-APPAMP-014, (3R,4R)-4-(((3-isopropyl-7-((quinolin-2-ylmethyl)amino)pyrazolo[1,5-a]pyrimidin-5-yl)amino)methyl)piperidin-3-ol]	75	0.3	75	7.3	10	19
Cc1ccn2c(CNc3cc(NC[C@H]4CCNC[C@@H]4O)nc4c(C(C)C)cnn34)c(C)nc2c1 [H-APPAMP-015, (3R,4R)-4-(((7-(((2,7-dimethylimidazo[1,2-a]pyridin-3-yl)methyl)amino)-3-isopropylpyrazolo[1,5-a]pyrimidin-5-yl)amino)methyl)piperidin-3-ol]	277	0.01	277	151	1.8	3
CC(C)c1cnn2c(NCc3cnc4ccccn34)cc(NC[C@H]3CCNC[C@@H]3O)nc12 [H-APPAMP-016, (3R,4R)-4-(((7-((imidazo[1,2-a]pyridin-3-ylmethyl)amino)-3-isopropylpyrazolo[1,5-a]pyrimidin-5-yl)amino)methyl)piperidin-3-ol]	96	1.9	96	14.8	6.5	179
Cc1c(CNc2cc(NC[C@H]3CCNC[C@@H]3O)nc3c(C(C)C)cnn23)nc2ccccn12 [H-APPAMP-017, (3R,4R)-4-(((3-isopropyl-7-(((3-methylimidazo[1,2-a]pyridin-2-yl)methyl)amino)pyrazolo[1,5-a]pyrimidin-5-yl)amino)methyl)piperidin-3-ol]	63	0.6	143	8.3	17.2	40
[2H]C([2H])(Nc1cc(NC[C@H]2CCNC[C@@H]2O)nc2c(C(C)C)cnn12)c1cn2ccccc2n1 [H-APPAMP-018, (3R,4R)-4-(((7-((imidazo[1,2-a]pyridin-2-ylmethyl-d2)amino)-3-isopropylpyrazolo[1,5-a]pyrimidin-5-yl)amino)methyl)piperidin-3-ol]	65	3.2	65	16.3	4.0	206
CC(C)c1cnn2c(NC(C)c3cn4ccccc4n3)cc(NC[C@H]3CCNC[C@@H]3O)nc12 (stereo partly drawn) [H-APPAMP-019, (3R,4R)-4-(((7-((1-(imidazo[1,2-a]pyridin-2-yl)ethyl)amino)-3-isopropylpyrazolo[1,5-a]pyrimidin-5-yl)amino)methyl)piperidin-3-ol]	522	1.2	522	76.9	6.8	640
CC(C)c1cnn2c(NCc3cc4ccccc4o3)cc(NC[C@H]3CCNC[C@@H]3O)nc12 [H-APPAMP-020, (3R,4R)-4-(((7-((benzofuran-2-ylmethyl)amino)-3-isopropylpyrazolo[1,5-a]pyrimidin-5-yl)amino)methyl)piperidin-3-ol]	540	0.2	540	116	4.7	82
CC(C)c1cnn2c(NCc3ccccc3)cc(NC[C@H]3CCNC[C@@H]3O)nc12 [REF-001, reference compound]	3200					
CC(C)c1cnn2c(NCc3ccncc3)cc(NC[C@H]3CCNC[C@@H]3O)nc12 [REF-002, reference compound]	253					125
CC(C)c1cnn2c(Nc3csc4ccccc34)cc(NC[C@H]3CCNC[C@@H]3O)nc12 [REF-003, reference compound]	597					11
